In US7160992B2, “Amino-modified polysaccharides and methods of generating and using same” (Yeda Research and Development Co., Ltd., priority 2003, dated 2007):

Columns and labels:
CXCR4 = biological target: T1, CXCR4 (Homo sapiens, UniProt P61073); assay: Inhibition of anti-CXCR4 mAb 12G5 binding to cells, flow cytometry; type: cell-based; details: for reduction of 12G5 mAb binding to the cells: 10 μM AAC, PM1 cells, 30 min at 4° C.; for inhibition of 12G5 mAb binding to CXCR4 (in words): 20 μM aminoglycoside antibiotic; for inhibition of mAb 12G5 or SDF-1α binding to CXCR4, % of the NeoR6 activity: in comparison to NeoR6
T1 construct: endogenous in cells; host or cells: PM1 cells and PBMC
Procedure: FIGS. 11a–d are graphs depicting the binding of AACs to CXCR4 in the presence of anti CXCR4 antibody (12G5). PM1 cells were incubated with PE-conjugated isotype control mAb, PE-anti CXCR4 conjugated mAb (12G5) alone, or in the presence of the indicated AACs for 30 min at 4° C. The cells were then washed twice with PBS and analyzed by flow cytometry. The MFI values are shown in parenthesis.
Interaction of AACs with CXCR4 was determined by flow cytometry (FACScan, Becton Dickinson) as described recently (Litovchick et al., 2001, supra). Briefly, 0.5×10^6 cells were washed in ice-cold PBS containing 0.1% sodium azide (wash buffer) and incubated at 4° C. with anti-CXCR4 mAb, 12G5 (PharMingen, San Diego, Calif.) conjugated to phycoerithrine (PE), in the absence or presence of different concentrations of the AACs. After 30 min of incubation, the cells were washed with ice-cold wash buffer and fixed in PBS containing 1% paraformaldehyde. Non-specific fluorescence was assessed by using isotype-matched control. For each sample 10,000 events were acquired. Data were analyzed and processed using CellQuest™ software (Becton Dickinson).

TAR RNA = assay: Fluorescence anisotropy: RhdRev binding and AAC competition for TAR RNA; design: species or system HIV-1; details: for Kd: competition of AACs with RhdRev (10 nM) for TAR RNA (20 nM) binding, 85 mM NaCl; for IC50: competition of AACs with RhdRev for TAR RNA binding
MT-2 cells = assay: Cellular uptake competition of AACs with NeoR6-FITC, flow cytometry; type: cell-based; details: for competition with NeoR6-FITC uptake (in words): 100 fold excess of non-labeled AAC
Procedure: Following 15 minutes of incubation at room temperature, the cells were washed twice with ice-cold PBS and fixed in PBS containing 1% paraformaldehyde. Fluorescence was analyzed using flow cytometry.
After 5 or 15 min of incubation at room temperature, the cells were washed twice with ice-cold PBS and fixed in PBS containing 1% paraformaldehyde. The fluorescence was then analyzed by flow cytometry (FACScan, Becton Dickinson Imunocytometry Systems, San Jose, Calif., USA). For each sample 10,000 events were acquired. Data were analyzed and processed.

RRE IIB RNA = assay: Fluorescence anisotropy: RhdRev binding and AAC competition for RRE IIB RNA; design: species or system HIV-1; details: for Kd: competition of AACs with RhdRev (10 nM) for RRE IIB RNA (20 nM) binding, 85 mM NaCl; for IC50: competition of AACs with RhdRev for RRE IIB RNA binding
HIV-1 isolates = assay: Inhibition of HIV-1 infection (cMAGI reporter cells, MT2 syncytium formation); type: cell-based; details: up to 100 μM
Procedure: Aliquots of cell-free culture supernatants were used as viral inoculum. […] Cytotoxicity determinations were carried out in MT2 and H9 cells by trypan blue exclusion assay.
Viral inhibition was determined by incubating cMAGI HIV-1 reporter cells with 0.2–0.5 multiplicity of infection of HIV-1IIIB for 4 days at 37° C. in the presence or absence of various concentration of AACs, prior to counting the number of HIV-1 infected cells (stained blue). The cytopathic effects of the viral infection of MT2 cells were also analyzed by microscopic assessment of syncytium formation. These latter data were obtained by analysis of duplicate samples by two independent observers.

HIV-1IIIB wild type = assay: Inhibition of HIV-1IIIB wild type in MT2 or cMAGI cells; type: cell-based; details: HIV-1IIIB wt; mean and standard deviation of three separate experiments; read-out: EC50, Wild-type
Source text: The cMAGI assay is based on the ability of HIV-1 TAT to transactivate the expression of an integrated β-galactosidase reporter gene driven by the HIV-LTR [Chackerian, B. et al., 1997. J Virol. 71: 3932–3939; Collins, K. B. et al., 2000. Nat. Med. 6: 475–479]. The β-galactosidase reporter has been modified to remain localized in the nucleus where it can be detected with the X-gal substrate as an intense nuclear stain within a few days of infection. The X-gal substrate used was 5-bromo-4-chloro-3-indoyl-beta-D-galactopyranoside. HIV1IIIB was propagated by subculture in MT2 as described previously [Litovchick (2001) Supra]. Aliquots of cell-free culture supernatants were used as viral inoculum. […] The cytopathic effects of the viral infection of MT2 cells were analyzed by microscopic assessment of syncytium formation. These latter data were obtained by analysis of duplicate samples by two independent observers. HIV-1 infection of cMAGI cells was determined by counting the number of HIV-1 infected cells (stained blue).

[1] = tested on: lymphocytes, PBMC and neurons; details: cited from earlier work
CD4 = biological target: T2, CD4 (Homo sapiens, UniProt P01730); details: PHA stimulated peripheral blood lymphocytes; cited from earlier work
T2 construct: in PHA stimulated peripheral blood lymphocytes (PBL); host or cells: PHA stimulated peripheral blood lymphocytes (PBL)

CCR5 = biological target: T3, CCR5 (Homo sapiens, UniProt P51681); details: PHA stimulated peripheral blood lymphocytes; cited from earlier work
T3 construct: in PHA stimulated peripheral blood lymphocytes (PBL); host or cells: PHA stimulated peripheral blood lymphocytes (PBL)
T3 sequence (P51681 whole entry): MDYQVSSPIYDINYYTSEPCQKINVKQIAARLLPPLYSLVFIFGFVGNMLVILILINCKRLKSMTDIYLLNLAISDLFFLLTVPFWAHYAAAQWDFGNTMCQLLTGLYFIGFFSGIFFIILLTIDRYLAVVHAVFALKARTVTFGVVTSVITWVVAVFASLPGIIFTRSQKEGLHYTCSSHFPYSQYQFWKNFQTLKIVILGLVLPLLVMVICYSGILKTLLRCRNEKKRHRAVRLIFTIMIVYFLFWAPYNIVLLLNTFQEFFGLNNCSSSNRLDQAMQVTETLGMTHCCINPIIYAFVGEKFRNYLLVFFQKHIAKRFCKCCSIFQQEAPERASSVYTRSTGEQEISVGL

T1 sequence (P61073 whole entry): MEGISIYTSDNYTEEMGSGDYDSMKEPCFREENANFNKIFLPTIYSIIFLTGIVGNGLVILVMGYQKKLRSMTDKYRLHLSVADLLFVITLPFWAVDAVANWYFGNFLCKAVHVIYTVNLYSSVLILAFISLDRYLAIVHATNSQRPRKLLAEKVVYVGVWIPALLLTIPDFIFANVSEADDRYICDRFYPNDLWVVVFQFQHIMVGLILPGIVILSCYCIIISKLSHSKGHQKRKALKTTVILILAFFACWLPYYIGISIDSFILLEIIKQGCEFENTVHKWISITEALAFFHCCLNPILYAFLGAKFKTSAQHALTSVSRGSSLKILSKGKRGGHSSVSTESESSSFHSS

Row | Compound | reduction of 12G5 mAb binding to the cells (CXCR4) [%] | Kd (TAR RNA) [nM] | IC50 (TAR RNA) [nM] | competition with NeoR6-FITC uptake (in words) (MT-2 cells) | Kd (RRE IIB RNA) [nM] | IC50 (RRE IIB RNA) [nM] | antiviral activity (in words) (HIV-1 isolates) | also measured
1 | CC(=O)O.N=C(N)NCCCC(N)C(=O)NCC1OC(OC2C(CO)OC(OC3C(O)C(N)CC(N)C3OC3OC(CO)C(O)C(O)C3N)C2O)C(N)C(O)C1O (centres unmarked) [ParomR1, argininamido-paramomycin conjugate] | 16 | > 500 | > 500 | did not compete | 254 ± 7.8 | 407 ± 41 |  | 
2 | NC[C@H]1O[C@H](O[C@H]2[C@H](O)[C@@H](O)[C@H](N)C[C@@H]2N)[C@H](N)[C@@H](O)[C@@H]1O [neamine, reference compound] |  |  |  |  |  |  | did not reveal antiviral activity | inhibition of 12G5 mAb binding to CXCR4 (in words) (CXCR4): did not inhibit
3 | CC(=O)O.N=C(N)NCCCC(N)C(=O)NCC1OC(OC2C(CO)OC(OC3C(O)C(N)CC(N)C3OC3OC(CNC(=O)C(N)CCCNC(=N)N)C(O)C(O)C3N)C2O)C(N)C(O)C1O (centres unmarked) [NeoR2, diargininamido-neomycin B conjugate] | 48 | > 500 | > 500 |  | 112 ± 3.7 | 208 ± 21.1 |  | inhibition of mAb 12G5 or SDF-1α binding to CXCR4, % of the NeoR6 activity (CXCR4): 55%; inhibition of NeoR6-FITC uptake, less affinity than NeoR6 (MT-2 cells; 100 fold excess of non-labeled AAC over 0.5 μM NeoR6-FITC): about 50%
4 | Nc1ccn([C@H]2CC[C@@H](CO)O2)c(=O)n1 [ddC, Dideoxycytosine, reference compound] |  |  |  |  |  |  |  | EC50 (HIV-1IIIB wild type): 300 ± 100 nM
5 | CC(=O)O.N=C(N)NCCCC(N)C(=O)NCC1OC(OC2C(N)CC(N)C(O)C2O)C(N)C(O)C1O (centres unmarked) [NeamR1, argininamido-neamine conjugate] | 5 | > 500 | > 500 | did not compete | 233 ± 4.5 | 342 ± 29.5 |  | 
6 | NC[C@@H]1O[C@H](O[C@H]2[C@@H](O)[C@H](O[C@@H]3[C@@H](O)[C@H](N)C[C@H](N)[C@H]3O[C@H]3O[C@H](CO)[C@@H](O)[C@H](O)[C@H]3N)O[C@@H]2CO)[C@H](N)[C@@H](O)[C@@H]1O [paromomycin, reference compound] |  |  |  |  |  |  | did not reveal antiviral activity | inhibition of 12G5 mAb binding to CXCR4 (in words) (CXCR4): did not inhibit
7 | gentamicin |  |  |  |  |  |  | did not reveal antiviral activity | 
8 | NC(N)=NCCC[C@H](N)C(=O)NC[C@H]1O[C@H](O[C@H]2C(O)[C@@H](O[C@H]3O[C@H](CO)[C@@H](O)[C@H](NC(=O)[C@@H](N)CCCN=C(N)N)[C@H]3O)[C@H](NC(=O)[C@@H](N)CCCN=C(N)N)C[C@@H]2NC(=O)[C@@H](N)CCCN=C(N)N)[C@H](O)[C@@H](O)[C@@H]1O (some centres unmarked) [R4K] |  |  |  |  |  |  |  | accumulation in cells [1]: accumulate in different cell types; inhibition of binding of anti CD4 antibody (Leu 3a) (CD4): neither R3G nor R4K or NeoR6 inhibit the binding; inhibition of binding of 2D7, a mAb directed to CCR5 (CCR5): neither R3G nor R4K or NeoR6 inhibit the binding
9 | argininamido-neomycin B conjugate [NeoR1] | 50 | > 500 | > 500 | did not compete | 200 ± 5.9 | 353 ± 31.9 |  | inhibition of mAb 12G5 or SDF-1α binding to CXCR4, % of the NeoR6 activity (CXCR4): 55%
